Reference: patent US20200318195A1, “Bivalent Nucleic Acid Ligands and Uses Therefor” (Carnegie Mellon University, priority 2017, published 2020)

How the values were obtained:
R11A [1] = experiment: NMR titration of ligand with R11A; format: binding; conditions: R11A 0.1 mM, 0.1x PBS
Method: FIG. 15. NMR titration of LG2 with R11A. The concentration of R11A was 0.1 mM. Aliquots of LG2 at the indicated molar ratios were added to R11A and incubated at 37° C. for 15 min prior to data acquisition. Solvent-exchangeable protons are indicated by dashed lines, and nonexchangeable protons by vertical solid lines.
To gain insight into the binding mode of LG2, we performed a series of multinuclear and multidimensional NMR experiments with LG2, R11A, and in combination. The samples were prepared in the same 0.1× PBS buffer as before, containing a 9:1 volume ratio of H2O:D2O The NOESY data were collected at 300, 200, and 100 ms mixing times to obtain proton-proton distance, while COSY experiments were performed to map the proton spin-system of each residue. The expectation was that H-bonding interactions between LG2 and R11A would result in line-broadening and downfield chemical shift of the imino proton signals of the canonical G-C/C-G pairs due to base-pair opening, and in an emergence of a new set of imino proton signals due to the formation of H-bonds between ligand and RNA. […] Variable-temperature measurements further supported this chemical shift assignment, showing a gradual decay in peak intensity with increasing temperature while that of the non-exchangeable protons remained fairly constant. Partial assignments of the nucleobase protons were made by NOESY experiments. […]

R11U [2] = experiment: Steady-state fluorescent measurements of ligand with R11U; format: binding
Method: (§1) FIG. 14. The effects of ligand orientation (LG2P), mismatched R11U and single-stranded targets (WS+CS). Inset: Fluorescent spectra of the corresponding samples after addition of 2.5 μM of pentamidine.
(§2) To further corroborate the UV-Vis and CD findings, we measured the fluorescent signals of ligands with and without RNA targets following an excitation at 330 nm (λmax of E-base). We observed a significant fluorescent quenching of LG3 compared to that of LG1 and LG2. Such a drastic reduction in the fluorescent signals could be due to photo-induced electron transfer quenching, which is expected to be most efficient for LG3 since the fluorophore (E) is stacked between two other J-bases. […] With all three ligands, the emission signals were further reduced upon the addition of R11A, but most dramatically with LG2, 60% reduction with LG2 as compared to 35 and 33% with LG1 and LG3, respectively. […]
(§3) The samples were prepared in 0.1× PBS buffer. […] All steady-state fluorescence samples were prepared by mixing ligands with RNA at the indicated concentrations in 0.1× PBS buffer, and annealed by incubation at 90° C. for 5 min followed by a gradual cooling to 37° C. […] Steady-state fluorescence data were collected at 25° C. by Cary Eclipse Fluorescence Spectrometer. […]

[WS+CS] = Steady-state fluorescent measurements of ligand with single strands; format: binding
Method: as §1, §2, §3

R11C = experiment: CD of ligand with mismatched R11C; format: binding; conditions: 0.1x PBS; data not shown
From the text: (§4) A series of model RNA targets were chosen for binding study (FIG. 11). The R11X series comprised 24 rCXG-repeats (FIG. 11 (A)), which, upon adopting a secondary hairpin structure, provided 11 binding sites for ligands (FIG. 11(B)). R11A contained the perfect-match (A-A), while R11U and R11C contained the respective U—U and C—C mismatches for ligand binding. R11G (X=G) was not ascertained since it has shown to be capable of forming G-quadruplex as well as hairpin structures, which could confound the interpretation of the experimental results. Single-stranded RNA targets, WS (Watson Strand) and CS (Crick Strand), with the LG2 binding-site underlined (FIG. 11 (C)), as well as double-stranded hairpin HP containing a single ligand binding-site (FIG. 11 (D)), were also examined. The samples were prepared by incubating the pre-annealed RNAs with respective ligands in 0.1× PBS buffer (1 mM NaPi, 13.7 mM NaCl, 0.27 mM KCl; pH 7.4) at 37° C. […]
as §3

R11A [3] = experiment: CD of ligand with perfect-match rCAG hairpin R11A; format: binding; conditions: 0.1x PBS
Method: FIG. 12. CD titration of LG2 with R11A. The concentration of R11A was 0.5 μM and those of LG2 were X: 0, 1.5, 2.5, 3.5, 4.5, 5.5, 6.5, 8.5, and 11.5 μM. After the addition of LG2 to R11A, the mixtures were incubated at 37° C. for 30 min prior to the acquisition of data at 25° C.
(§5) FIG. 13. CD spectra of LG2 with the (A) mismatched R11U, (B) single-stranded WS and CS, and (C) double-stranded HP containing a single binding-site, as well as that of (D) LG2P with R11A. CD spectra of RNAs (line) and that of the [RNA+ligand] mixtures (dash).
A series of model RNA targets were chosen for binding study (FIG. 11). The R11X series comprised 24 rCXG-repeats (FIG. 11 (A)), which, upon adopting a secondary hairpin structure, provided 11 binding sites for ligands (FIG. 11(B)). R11A contained the perfect-match (A-A), while R11U and R11C contained the respective U—U and C—C mismatches for ligand binding. […]
as §3

R11A [4] = experiment: Steady-state fluorescent measurements of ligand with R11A; format: binding; conditions: for fluorescent signals of ligand with R11A in presence of pentamidine: 2.5 uM of pentamidine; for reduction of emission signals upon the addition of R11A: 0.1x PBS
Method: as §1
To further corroborate the UV-Vis and CD findings, we measured the fluorescent signals of ligands with and without RNA targets following an excitation at 330 nm (λmax of E-base). We observed a significant fluorescent quenching of LG3 compared to that of LG1 and LG2. Such a drastic reduction in the fluorescent signals could be due to photo-induced electron transfer quenching, which is expected to be most efficient for LG3 since the fluorophore (E) is stacked between two other J-bases. […] With all three ligands, the emission signals were further reduced upon the addition of R11A, but most dramatically with LG2, 60% reduction with LG2 as compared to 35 and 33% with LG1 and LG3, respectively. We observed a similar fluorescent quenching pattern upon the incubation of LG2 with R11U, [WS+CS], HP, and LG2P with R11A (FIG. 14)—although less dramatic as compared to that of LG2 with R11A. […] To test the hypothesis that the nonspecific binding of ligand to RNA can lead to fluorescent quenching, we incubated the respective RNA targets with pentamidine prior to adding LG2 and vice versa.
The samples were prepared in 0.1× PBS buffer. All spectra represent an average of at least fifteen scans collected at 100 nm/min rate between 200 and 375 nm, in a 1-cm path-length cuvette at 25° C. CD spectrum from buffer solution was subtracted from the sample spectra, which were then smoothed via a five-point adjacent averaging algorithm. Steady-State fluorescent measurements. All steady-state fluorescence samples were prepared by mixing ligands with RNA at the indicated concentrations in 0.1× PBS buffer, and annealed by incubation at 90° C. for 5 min followed by a gradual cooling to 37° C. The samples were incubated at 37° C. for 1 hr before the measurements. Steady-state fluorescence data were collected at 25° C. by Cary Eclipse Fluorescence Spectrometer. (εex=330 nm, εem=340-600 nm) with slit size.

HP = experiment: Steady-state fluorescent measurements of ligand with HP; format: binding; conditions: excitation at 330 nm
From the text: To further corroborate the UV-Vis and CD findings, we measured the fluorescent signals of ligands with and without RNA targets following an excitation at 330 nm (λmax of E-base). We observed a significant fluorescent quenching of LG3 compared to that of LG1 and LG2. Such a drastic reduction in the fluorescent signals could be due to photo-induced electron transfer quenching, which is expected to be most efficient for LG3 since the fluorophore (E) is stacked between two other J-bases. […] With all three ligands, the emission signals were further reduced upon the addition of R11A, but most dramatically with LG2, 60% reduction with LG2 as compared to 35 and 33% with LG1 and LG3, respectively. We observed a similar fluorescent quenching pattern upon the incubation of LG2 with R11U, [WS+CS], HP, and LG2P with R11A (FIG. 14)—although less dramatic as compared to that of LG2 with R11A. […]
as §3

R11U [5] = experiment: CD of ligand with mismatched R11U; format: binding; conditions: 0.1x PBS
From the text: as §5
as §4, with “examined.” for “examined. The samples were prepared by incubating the pre-annealed RNAs with respective ligands in 0.1× PBS buffer (1 mM NaPi, 13.7 mM NaCl, 0.27 mM KCl; pH 7.4) at 37° C.”
as §3

[6] = system: single-stranded WS and CS; experiment: CD of ligand with single-stranded RNA targets; format: binding; conditions: 0.1x PBS
From the text: as §5
as §4, with “examined.” for “examined. The samples were prepared by incubating the pre-annealed RNAs with respective ligands in 0.1× PBS buffer (1 mM NaPi, 13.7 mM NaCl, 0.27 mM KCl; pH 7.4) at 37° C.”
as §3

[7] = system: double-stranded HP containing a single binding-site; experiment: CD of ligand with hairpin containing a single binding-site; conditions: 0.1x PBS
From the text: as §5
as §4, with “examined.” for “examined. The samples were prepared by incubating the pre-annealed RNAs with respective ligands in 0.1× PBS buffer (1 mM NaPi, 13.7 mM NaCl, 0.27 mM KCl; pH 7.4) at 37° C.”
as §3

## H-EFI-Lys-NH2 [LG2]
R11A [1]
  new imino proton signals in the 10-20 ppm regimes (H-bond formation between ligand and RNA): did not observe any new imino proton signals
R11A [1]; 9:1 H2O:D2O
  imino proton signal of R11A upon the addition of ligand: gradually broadened and downfield-shifted
R11U [2]; 2.5 uM of pentamidine
  fluorescent signals of ligand with R11U in presence of pentamidine: fully recovered
R11U [2]; excitation at 330 nm
  fluorescent quenching with R11U compared to that of LG2 with R11A: less dramatic
[WS+CS]; 2.5 uM of pentamidine
  fluorescent signals of ligand with [WS+CS] in presence of pentamidine: fully recovered
[WS+CS]; excitation at 330 nm
  fluorescent quenching with [WS+CS] compared to that of LG2 with R11A: less dramatic
R11C
  change in CD signals after incubation with mismatched R11C: no significant differences in the CD signals
R11A [3]; signals at ~270 nm
  differential in CD amplitude with R11A, among the ligand series: largest differential in CD amplitude
R11A [4]
  fluorescent signals of ligand with R11A in presence of pentamidine: remained suppressed
R11A [4]; excitation at 330 nm
  reduction of emission signals upon the addition of R11A: 60%
HP
  fluorescent quenching with HP compared to that of LG2 with R11A: less dramatic
R11U [5]
  change in CD signals after incubation with mismatched R11U: no significant differences in the CD signals
[6]
  change in CD signals after incubation with single-stranded WS and CS: no significant differences in the CD signals
[7]
  change in CD signals after incubation with HP: no significant differences in the CD signals

## H-FIE-Lys-NH2 [LG1]
R11A [4]; excitation at 330 nm
  reduction of emission signals upon the addition of R11A: 35%

## H-IEF-Lys-NH2 [LG3]
R11A [4]; excitation at 330 nm
  reduction of emission signals upon the addition of R11A: 33%

## H-IPE-Lys-NH2 [LG2P]
R11A [3]
  change in CD signals after incubation with R11A: no significant differences in the CD signals
R11A [4]
  fluorescent signals of ligand with R11A in presence of pentamidine: fully recovered
R11A [4]; excitation at 330 nm
  fluorescent quenching with R11A compared to that of LG2 with R11A: less dramatic
